Source: PMC11347161, “Sequence diversity of apidaecin-like peptides arresting the terminating ribosome” (Nucleic Acids Research, 2024)
In brackets after ≈: the same amount, converted by molar mass. Residues, ends and D or L forms follow the SMILES beside them. *: point of attachment. Orn(α-tetramethylguanidino) = CN(C)C(=N[C@@H](CCCN)C(=O)*)N(C)C

System: E. coli, BL21 cells
Assay type: cell-based
Settings: for MIC, TSB / MIC, LB / MIC, RPMI/Serum: E. coli BL21, broth microdilution, conducted in triplicate; for MIC, TSB: 33% TSB medium; for MIC, LB: LB medium; for MIC, RPMI/Serum: RPMI/Serum medium (RPMI-1640:MHB:FBS = 100:5:20)
Method: The E. coli strain CA244 (lacZ125(Am), e14-, trpA49(Am), relA1, spoT1) was obtained from Escherichia coli Genetic Stock Center. The E. coli BL21(DE3) electrocompetent cells were from Sigma. The following media and components were implemented for bacteria growth: lysogeny broth (LB), minimal M9 medium, Tryptic Soy Broth (TSB), Roswell Park Memorial Institute medium 1640 (RPMI-1640), Mueller Hinton Broth (MHB), Fetal Bovine Serum (FBS). For various experiments E. coli cells were grown either in LB, in 33% TSB ([21]), in M9 medium supplemented with 1% Glycerol, 1 mM MgSO4, 0.1 mM CaCl2 and 10 μg/ml thiamine, or in RPMI/Serum (RPMI-1640:MHB:FBS = 100:5:20) ([23]).
The minimal inhibitory concentration (MIC) test was performed using the broth microdilution method, adapted from the previously described procedure ([28]). The MIC tests were conducted in triplicate either in LB, 33% TSB or RPMI/Serum media.
In order to quantitatively assess the antimicrobial activity of the synthesized peptides identified by both, the negative and positive selection strategies, we determined their minimal inhibitory concentrations (MICs) for the E. coli BL21 cells in three different media: LB, as a standard laboratory medium, 33% TSB, as a medium in which PrAMPs show increased antibacterial properties ([21]), and in the more therapeutically relevant RPMI/serum media ([23]) (Table 1). […] It appears, therefore, that the positive selection strategy is more prone to identifying biologically active peptides in comparison with the negative selection approaches. Furthermore, it became apparent that some multiple substitutions can even improve the antibacterial properties of the Api-like peptides.

Compound	MIC, TSB [µM]	MIC, LB [µM]	MIC, RPMI/Serum [µM]	MIC values relative to wt Api (E. coli BL21, peptides from depletion selection)
CC[C@H](C)[C@H](NC(=O)CNC(=O)[C@@H](NC(=O)[C@H](CCC(=O)O)NC(=O)[C@H](CCC(N)=O)NC(=O)[C@H](CC(N)=O)NC(=O)[C@H](CC(N)=O)NC(=O)[C@H](CCCN)N=C(N(C)C)N(C)C)C(C)C)C(=O)N[C@@H](CCSC)C(=O)N[C@@H](CCC(N)=O)C(=O)N1CCC[C@H]1C(=O)N[C@@H](CCCNC(=N)N)C(=O)N1CCC[C@H]1C(=O)N1CCC[C@H]1C(=O)N[C@@H](Cc1c[nH]cn1)C(=O)N1CCC[C@H]1C(=O)N[C@@H](CCCNC(=N)N)C(=O)N[C@@H](CC(C)C)C(=O)O [Peptide Q4E5G7M9] ({Orn(α-tetramethylguanidino)}-NNQEVGIMQPRPPHPRL-OH; C-terminus assumed)	>64	>64	>64	–
CC[C@H](C)[C@H](NC(=O)[C@H](Cc1ccc(O)cc1)NC(=O)[C@@H](NC(=O)[C@H](CCCNC(=N)N)NC(=O)[C@H](CCCNC(=N)N)NC(=O)[C@H](CC(N)=O)NC(=O)[C@H](CC(N)=O)NC(=O)[C@H](CCCN)N=C(N(C)C)N(C)C)C(C)C)C(=O)N1CCC[C@H]1C(=O)N[C@@H](CC(N)=O)C(=O)N1CCC[C@H]1C(=O)N[C@@H](CCCNC(=N)N)C(=O)N1CCC[C@H]1C(=O)N1CCC[C@H]1C(=O)N[C@@H](Cc1c[nH]cn1)C(=O)N1CCC[C@H]1C(=O)N[C@@H](CCCNC(=N)N)C(=O)N[C@@H](CC(C)C)C(=O)O [Peptide R5N10] ({Orn(α-tetramethylguanidino)}-NNRRVYIPNPRPPHPRL-OH; C-terminus assumed)	8 (≈ 18.5 µg/mL)	32 (≈ 73.9 µg/mL)	1 (≈ 2.31 µg/mL)	comparable to those of wt Api
CC[C@H](C)[C@H](NC(=O)[C@H](Cc1ccc(O)cc1)NC(=O)[C@@H](NC(=O)[C@H](CCCNC(=N)N)NC(=O)[C@H](CCCNC(=N)N)NC(=O)[C@H](CC(N)=O)NC(=O)[C@H](CC(N)=O)NC(=O)[C@H](CCCN)N=C(N(C)C)N(C)C)C(C)C)C(=O)N1CCC[C@H]1C(=O)N[C@@H](CCC(N)=O)C(=O)N1CCC[C@H]1C(=O)N[C@@H](CCCNC(=N)N)C(=O)N[C@@H](CC(N)=O)C(=O)N1CCC[C@H]1C(=O)N[C@@H](Cc1c[nH]cn1)C(=O)N[C@@H](CC(C)C)C(=O)N[C@@H](CCCNC(=N)N)C(=O)N[C@@H](CC(C)C)C(=O)O [Peptide R5N13L16] ({Orn(α-tetramethylguanidino)}-NNRRVYIPQPRNPHLRL-OH; C-terminus assumed)	>64	>64	>64	–
CC(C)C[C@H](NC(=O)[C@H](CCCNC(=N)N)NC(=O)[C@@H]1CCCN1C(=O)[C@H](Cc1c[nH]c2ccccc12)NC(=O)[C@@H]1CCCN1C(=O)[C@@H]1CCCN1C(=O)[C@H](CCCNC(=N)N)NC(=O)[C@@H]1CCCN1C(=O)[C@H](CCC(N)=O)NC(=O)[C@@H]1CCCN1C(=O)[C@H](CC(=O)O)NC(=O)[C@H](CC(N)=O)NC(=O)[C@@H](NC(=O)[C@H](CCCNC(=N)N)NC(=O)[C@H](CCCNC(=N)N)NC(=O)[C@H](CC(N)=O)NC(=O)[C@H](CC(N)=O)NC(=O)[C@H](CCCN)N=C(N(C)C)N(C)C)[C@@H](C)O)C(=O)O [Peptide R5T6N7D8W15] ({Orn(α-tetramethylguanidino)}-NNRRTNDPQPRPPWPRL-OH; C-terminus assumed)	>64	>64	>64	–
